According to patent US4791113A, “Mitomycin derivatives as antileukemia agents” (Kyowa Hakko Kogyo Kabushiki Kaisha, priority 1986, dated 1988):
Converted amounts (≈) assume the structure as drawn. Read-outs that look alike come from different tables or passages of the source.

Legend:
Hela S3 cultured cells = test: Effects upon Hela S3 cultured cells; format: cell-based; details: Homo sapiens
Protocol: Table 3 indicates the effects of typical Compounds (I) against Hela S3 culture cells. In this table, IC50 denotes the concentration of the test compound capable of reducing the number of cells to 50% the number of untreated cells.
Cultured cells of Hela S3 were added to a MEM medium containing 10% (V/V) of bovine fetal serum and […] of glutamine to obtain a cell suspension of 3×10^4 cells/ml. The cell suspension was poured into each well (1 ml/well) of a 24 well-multiplate for culturing at 37° C. in an incubator containing carbon dioxide (5%) and air (95%). After 24 hours, samples were dissolved or suspended in PBS, ethanol or dimethylsulfoxide and added to the medium at different concentrations, followed by culturing at 37° C. for 72 hours in the same incubator. An aspirator was used to collect the medium from each well. The surface of each medium was washed by adding PBS (1 ml) gently, and then PBS was sucked out. PBS containing trypsin (0.05%) and EDTA (0.02%) was poured into each well. After pipetting, the number of cells in each suspension was counted by the use of a microcell counter (commercial product of Toa Iyo Denshi K.K., Japan). By reference to a curve showing the concentration vs. the number of cells, the IC50 (concentration of sample capable of reducing the number of cells to 50% of the number of control untreated cells) was measured.

in vivo = details: mouse, ip, single abdominal administration, ddy mice, 14 days, Behrens-Korber's method
Description: In this table, C.I. denotes chemotherapeutic index, calculated as C.I.=(LD50)/(ED50), wherein LD50 denotes the value of acute toxicity, and ED50 denotes the dose of a sample which is capable of reducing the volume of Sarcoma 180 solid tumour to 50% of the corresponding volume of the solid tumour of untreated group.
The test compound was abdominally administered once to ddy mice, each group consisting of 5 animals.

Row | Structure (SMILES) | IC50 (Hela S3 cultured cells; HeLa S3, 72 h) [µg/mL] | IC50 (Hela S3 cultured cells; concentration reducing number of Hela S3 cells to 50% of untreated, 72 hours at 37° C., read-out: IC50) [µg/mL] | LD50 at 336 h (in vivo) [mg/kg]
1 | CO[C@@]12[C@H](CO)c3c(O)c(N=NC(=O)c4ccccc4)c(C)c(O)c3N1C[C@H]1[C@@H]2N1C (stereo partly drawn) [Example 22, [1aS-(1aα,8β,8aα,8bα)]-6-[(benzoyl)azo]-4,7-dihydroxy-1,5-dimethyl-1,1a,2,8,8a,8b-hexahydro-8-hydroxymethyl-8a-methoxy-azirino-[2',3':3,4[pyrrolo]1,2-a]indole] | 0.131 (≈ 0.309 µM) | – | –
2 | COc1c(C)c(N=O)c(O)c2c1N1C[C@H]3[C@H](N3C)[C@]1(OC)[C@@H]2COC(N)=O (stereo partly drawn) [Example 7, [1aS-(1aα, 8α, 8aα, 8bα)]-8-{[(aminocarbonyl)oxy]methyl}-4,8a-dimethoxy-1,5-dimethyl-1,1a,2,8,8a,8b-hexahydro-7-hydroxy-6-nitroso-azirino-[2',3':3,4]-pyrrolo[1,2-a]indole] | 0.013 (≈ 0.0344 µM) | – | –
3 | CO[C@@]12[C@H](COC(N)=O)c3c(O)c(N=NC(C)=O)c(C)c(O)c3N1C[C@@H]1N[C@@H]12 [Example 18, [1aS-(1aα,8β,8aα,8bα)]-6-[(acetyl)azo]-8-{[(aminocarbonyl)oxy]methyl}-4,7-dihydroxy-1,1a,2,8,8a,8b-hexahydro-8a-methoxy-5-methyl-azirino[2',3':3,4]pyrrolo[1,2-a]indole] | 0.54 (≈ 1.38 µM) | – | –
4 | CO[C@@]12[C@H](COC(N)=O)c3c(O)c(N=NC(=O)c4ccccc4O)c(C)c(O)c3N1C[C@@H]1N[C@@H]12 [Example 28, [1aS-(1aα,8β,8aα,8bα)]-8-{[(aminocarbonyl)oxy]methyl}-4,7-dihydroxy-1,1a,2,8,8a,8b-hexahydro-6-[(2"-hydroxybenzoyl)azo]-8a-methoxy-5-methyl-azirino [2',3':3,4]pyrrolo[1,2-a]indole] | 0.08 (≈ 0.17 µM) | – | –
5 | COc1c(C)c(N=O)c(O)c2c1N1C[C@@H]3N[C@@H]3[C@]1(OC)[C@@H]2CO [Example 9, [1aS-(1aα, 8β, 8aα, 8bα)]-4,8a-dimethoxy-1,1a,2,8,8a,8b-hexahydro-7-hydroxy-8-hydroxymethyl-5-methyl-6-nitroso-azirino[2',3':3,4]pyrrolo [1,2-a]indole] | 0.005 (≈ 0.0156 µM) | – | –
6 | CO[C@@]12[C@H](COC(N)=O)c3c(O)c(N=NC(N)=O)c(C)c(O)c3N1C[C@@H]1N[C@@H]12 [Example 25] | 0.003 (≈ 0.00765 µM) | – | –
7 | CO[C@@]12[C@H](COC(N)=O)C3=C(C(=O)C(C)=C(N)C3=O)N1C[C@@H]1N[C@@H]12 [mitomycin C, reference compound] | – | 0.004 (≈ 0.012 µM) | –
8 | CO[C@@]12[C@H](COC(N)=O)c3c(O)c(N=NC(=O)c4ccccc4)c(C)c(O)c3N1C[C@@H]1N[C@@H]12 [Example 17, [1aS-(1aα,8β,8aα,8bα)]-8-{[(aminocarbonyl)oxy]methyl}-6-[(benzoyl)azo-]-4,7-dihydroxy-1,1a,2,8,8a,8b-hexahydro-8a-methoxy-5-methyl-azirino-[2',3':3,4]pyrrolo[1,2-a]indole] | 14.9 (≈ 32.9 µM) | – | –
9 | COC(=O)N=Nc1c(C)c(O)c2c(c1O)[C@@H](COC(N)=O)[C@@]1(OC)[C@H]3N[C@H]3CN21 [Example 24] | 0.012 (≈ 0.0295 µM) | – | > 100
